In patent publication US9738610B2, “Indazole derivatives and uses thereof” (Whitehead Institute for Biomedical Research, priority 2012, dated 2017):
Where two headings read alike, the source gives them in different places.

Columns and labels:
C. albicans CaCi-2 [1] = experiment: CaCi-2 growth inhibition in the presence of 8 μg/ml fluconazole (Alamar Blue); assay type: cell-based, Candida albicans
Protocol: Fluconazole was obtained from Sequoia Research Products, Ltd. and prepared in a 2 mg/ml stock solution in phosphate buffered saline (PBS). […] PBS (Catalog No. 21-040-CV) without calcium and magnesium was obtained from Cellgro. Penicillin/Streptomycin (Pen/Strep) was obtained from Gibco and prepared 100× in PBS.
RPMI medium (1×) was prepared by dissolving 10.4 g powdered medium in 800 ml water. A buffer of 34.52 g MOPS was added. While stirring, pH was adjusted to 7.0 with 10 N NaOH. Next, 10 ml uridine solution and 50 ml glucose solution were added. The final volume was adjusted to 1000 ml, and filter sterilized.
The following yeast strains were used in this study: C. albicans CaCi-2. Fungal inoculum was prepared as follows: 500 μl of strain was inoculated from cryopreserved stock into a 250-ml shaker flask containing 30 ml growth medium and shaken overnight at 30° C. The optical density (OD 600) of 1 ml fungal culture in a cuvette was read using a standard optical density reader (Eppendorf BioPhotometer Plus), with growth medium as a background blank. The desired volume of fungal inoculums was diluted to desired volume of fungal inoculums according to the following formula: (1/OD measured)×(Desired Final Volume of Inoculum)×0.3=Volume of fungal culture (μl) to add to desired volume of growth medium. When added to media in wells, this yields a calculated starting OD of the fungal inoculum of 0.00015.
Fluconazole stock solution was added to the fungal inoculum to achieve 8 μg/ml. Pen/Strep was added to the media to a 1% concentration (v/v). A Thermo Combi nL was used to dispense 20 μl/well of assay media into all wells. Geldanamycin was dispensed in positive control wells using Thermo Combi nL for a final concentration of 3 μM. Then, 100 nl of test compound was pinned from compound plates into assay plates using a CyBi-Well pin tool. A further 20 μl/well of culture was dispensed into the assay media in all wells. The plates were incubated in a humidified (90% humidity) Liconic incubator at 37° C. without agitation for 48 hours. Alamar Blue was diluted 1:40 in Ca/Mg-free PBS. To all plates, […] of the diluted Alamar Blue was added to the plates to a final dilution factor of 1:200. The plates were incubated for an additional 2 hours. Then, Relative Fluorescence Intensity (RFU) of each well was read on standard plate reader as a measure of relative fungal growth.

C. albicans CaCi-8 = experiment: microbe, parasite or virus in culture; assay type: cell-based, Candida albicans
Protocol: This subset was re-subjected to the primary assay and was also tested concurrently in two secondary assays. Secondary assay 1 measured chemosensitization of the more resistant CaCi-8 strain. Secondary assay 2 eliminated anything with inherently antifungal activity. […] A final assay (secondary assay 3) was incorporated to discard any compound displaying toxicity to mammalian fibroblasts. […] This screening campaign is also illustrated in FIG. 3B.
Those that inhibited growth in the resistant strain were also tested for toxicity against Candida in the absence of fluconazole and for toxicity against mammalian cells using a fluorescence reporter assay. The positive control for screening in the Candida and mammalian cell assays was the Hsp90 inhibitor geldanamycin (acting in concert with fluconazole; FIG. 4). Compounds that passed these four hurdles were binned through use of a Saccharomyces assay to determine whether the mechanism of action might be through the Hsp90 pathway, the calcineurin pathway, or an uncategorized mechanism.

C. albicans CaCi-2 [2] = experiment: Secondary single-agent (no-fluconazole) activity assay; assay type: cell-based, Candida albicans; conditions: in the absence of fluconazole; read-out: Target Potency (μM) Mean ± S.E.M CaCi-2^b IC50
Protocol: Clear, flat-bottom, black, 384-well plates were obtained from Corning. […] Pen/Strep was obtained from Gibco and prepared 100× in PBS. Fluconazole was obtained from Sigma and prepared in 2 mg/ml stock solution in PBS. Alamar Blue was obtained from Biosource International (Catalog No. DAL1100). Phosphate buffered solution (PBS) without calcium and magnesium was obtained from Cellgro.
Fungal inoculum was prepared as follows: 500 μl of yeast was inoculated from cryopreserved stock into a 250-ml shaker flask containing 30 ml growth medium and shaken overnight (16 hours) at 30° C. The culture was spun down, and the broth was poured off and washed with RPMI medium. The culture was spun down again, and the broth was poured off and resuspended in RPMI medium. The OD 600 of 1 ml of fungal culture in a cuvette was read using a standard optical density reader with growth medium as a background blank. The desired volume of fungal inoculum was diluted to starting OD of the fungal inoculum of 0.00015 A600.
Pen/Strep was added to the media to a final 1% concentration. A Combi NL (Thermo) was used to dispense 20 μl/well of assay media into all wells. Geldanamycin (1.5 mM) and fluconazole (0.2 mg/ml) were mixed for the positive control. Then, 80 nl of positive control solution was dispensed into the positive control wells using Thermo Combi nL for a final concentration of 3 μM geldanamycin and 8 μg/ml fluconazole. Then, 100 nl of test compound were pinned from the compound plates into assay plates using a CyBi-Well pin tool. A further 20 μl/well of RPMI synthetic defined medium culture was dispensed into 384-well, black plates. Fungal suspension (20 μl/well) was dispensed into all wells. The plates were incubated in a humidified (90% humidity) Liconic incubator at 37° C. without agitation for 48 hours. Alamar Blue Reagent was diluted 1:40 in Ca/Mg-free PBS. To all plates, 6.4 μl/well of the diluted Alamar Blue was added to the plates to a final dilution factor of 1:200. The plates were incubated for 2 hours at room temperature. Next, RFU of wells was read on a standard plate reader as a measure of relative fungal growth.

Plasma stability = conditions: % remaining in human plasma after a 5-hour incubation
Plasma protein binding = conditions: % bound in human plasma
[3] = 37° C., 48 hours, with 8 μg/mL (26 μM) fluconazole, average of at least three experiments
[4] = 37° C., 48 hours, with 8 μg/mL (26 μM) fluconazole, average of at least three experiments, read-out: CaCi-2 IC50
[5] = 37° C., 48 hours, with 8 μg/mL (26 μM) fluconazole, average of at least three experiments, read-out: CaCi-8 IC50
[6] = in the presence of fluconazole, read-out: Target Potency (μM) Mean ± S.E.M CaCi-2^a IC50
[7] = in the presence of fluconazole, read-out: Target Potency (μM) Mean ± S.E.M CaCi-8^a IC50
[8] = Table 12, read-out: CaCi-8 IC50 with 8 μg/ml fluconazole

Row | Compound | CaCi-2 IC50 (μM) (C. albicans CaCi-2 [1]; [3]) | CaCi-8 IC50 (μM) (C. albicans CaCi-8; [3]) | IC50 (C. albicans CaCi-2 [1]; [4]) [µM] | IC50 (C. albicans CaCi-8; [5]) [µM] | also measured
1 | COC(=O)Cn1nc(-c2ccccc2)c2cccnc21 | inactive | inactive |  |  | 
2 | CCc1nn(CC(=O)OC)c2ccccc12 [—Et] | inactive | inactive |  |  | 
3 | COC(=O)Cn1nc(-c2ccc(F)cc2)c2ccccc21 [Cpd 32] |  |  | 8.3 ± 2.8 | 12.3 ± 3.9 | 
4 | COC(=O)Cn1nc(-c2cccc(N(C)C)c2)c2ccccc21 [Cpd 37] |  |  | 0.8 ± 0.1 | 2 ± 0.2 | 
5 | COC(=O)Cn1nc(-c2ccccc2)c2ccccc21 [Compound I-16, methyl 3-phenyl-1H-indazole acetate] |  |  |  |  | IC50 (C. albicans CaCi-2 [1]; Candida albicans, CACI2, Table 12, read-out: CaCi-2 IC50 with 8 μg/ml fluconazole): 1.8 µM
6 | COC(=O)Cn1ncc2ccccc21 [—H] | inactive | inactive |  |  | 
7 | COC(=O)Cn1nc(-c2ccccc2)c2ccc(OC)cc21 [Compound 6-OMe] |  |  | 9.5 ± 2.5 | 12.4 ± 0.5 | 
8 | COC(=O)Cn1nc(-c2cccc(C)c2)c2ccccc21 [Cpd 35] |  |  | 1.1 ± 0.6 | 1.9 ± 0.9 | 
9 | COC(=O)Cn1nc(-c2ccc(C)cc2)c2ccccc21 [Cpd 30] |  |  | 4.8 ± 2.5 | 19.5 ± 14.2 | 
10 | COC(=O)Cn1nc(C(C)(C)C)c2ccccc21 | inactive | inactive |  |  | 
11 | COC(=O)Cn1nc(-c2ccc(OC)cc2)c2ccccc21 [Cpd 31] |  |  | 4.2 ± 1.7 | 14.1 ± 6.4 | 
12 | COC(=O)Cn1nc(-c2ccccc2)c2ccccc21 [Compound 3243873] |  |  |  |  | IC50 (C. albicans CaCi-2 [1]; [6]): 1.86 ± 0.99 µM; IC50 (C. albicans CaCi-2 [2]): > 26 µM; IC50 (C. albicans CaCi-8; [7]): 2.53 ± 1.13 µM; Plasma Stability (Plasma stability): < 1.0%; Plasma Protein Binding (Plasma protein binding): 96%
13 | COC(=O)Cn1nc(-c2ccccc2)c2ccc(F)cc21 [Compound 49835815] |  |  |  |  | IC50 (C. albicans CaCi-2 [1]; [6]): 5.1 µM; IC50 (C. albicans CaCi-2 [2]): > 26 µM; IC50 (C. albicans CaCi-8; [7]): 8.34 µM; Plasma Stability (Plasma stability): 1.1%; Plasma Protein Binding (Plasma protein binding): 97%
14 | COC(=O)Cn1nc(-c2ccccc2)c2ccc(C#N)cc21 [Compound 6-CN] | inactive | inactive |  |  | 
15 | COC(=O)Cn1nc(-c2ccccc2C)c2ccccc21 [Cpd 39] |  |  | 5.3 ± 0.5 | 7.8 ± 2.6 | 
16 | COC(=O)Cn1nc(C2CC2)c2ccccc21 | inactive | Inactive |  |  | 
17 | COC(=O)Cn1nc(-c2ccccc2)c2ccc(Cl)cc21 [Compound 6-Cl] |  |  | 4 ± 1.3 | 8.4 ± 0.5 | 
18 | COC(=O)Cn1nc(-c2cccc(F)c2)c2ccccc21 [CID 49835858] |  |  |  |  | IC50 (C. albicans CaCi-2 [1]; Table 12, read-out: CaCi-2 IC50 with 8 μg/ml fluconazole): 1.4 µM; IC50 (C. albicans CaCi-8; [8]): 2.1 µM

Row | Compound | CaCi-2 IC50 (μM) (C. albicans CaCi-2 [1]; [3]) | CaCi-8 IC50 (μM) (C. albicans CaCi-8; [3]) | IC50 (C. albicans CaCi-2 [1]; [4]) [µM] | IC50 (C. albicans CaCi-8; [5]) [µM] | also measured
19 | COC(=O)Cn1nc(-c2cccnc2)c2ccccc21 [drawing 228] |  | inactive |  |  | CaCi-2 IC50 (μM) (C. albicans CaCi-2 [1]): inactive
20 | COC(=O)Cn1nc(-c2cncnc2)c2ccccc21 [drawing 229] | inactive |  |  | 21.1 ± 3.3 | 
21 | COC(=O)Cn1nc(-c2ccccc2)c2cc(C)ccc21 [Compound 5-Me] |  |  | 5.2 ± 2.2 | 8.2 ± 3.2 | 
22 | COC(=O)Cn1nc(-c2ccccc2)c2cc(F)ccc21 [Compound 5-F] |  | inactive | 11.2 ± 7.2 |  | 
23 | COC(=O)Cn1nc(-c2cccc(C)c2)c2ccccc21 [CID 49835823] |  |  |  |  | IC50 (C. albicans CaCi-2 [1]; in the presence of fluconazole, read-out: CaCi-2 growth inhibition IC50): 0.65 µM; IC50 (C. albicans CaCi-8; [8]): 1.3 µM
24 | COC(=O)Cn1nc(-c2cscn2)c2ccccc21 |  | inactive | 12.9 ± 1.7 |  | 
25 | COC(=O)Cn1nc(-c2ccccc2)c2ccc(C(F)(F)F)cc21 [Compound 6-CF3] | inactive | inactive |  |  | 
26 | COC(=O)Cn1nc(-c2cccc(F)c2)c2ccccc21 [Cpd 38] |  |  | 1.7 ± 0.4 | 4.2 ± 4.1 | 
27 | COC(=O)Cn1nc(-c2ccccc2OC)c2ccccc21 [Cpd 40] |  |  | 9.3 ± 3.6 | 11.4 ± 1.7 | 
28 | COC(=O)Cn1nc(C2CCCCC2)c2ccccc21 |  |  | 2.3 ± 0.3 | 6 ± 1.7 | 
29 | COC(=O)Cn1nc(-c2cnco2)c2ccccc21 | inactive | inactive |  |  | 
30 | COC(=O)Cn1nc(-c2ccccc2)c2ccc(C)cc21 [Compound 6-Me] |  | inactive | 5.9 ± 3.1 |  | 
31 | COC(=O)Cn1nc(-c2cc(OC)cc(OC)c2)c2ccccc21 [Cpd 41] | inactive | inactive |  |  | 
32 | COC(=O)Cn1nc(-c2ccccc2)c2cc(OC)ccc21 [Compound 5-OMe] |  |  | 14.9 ± 5.7 | 22.1 ± 6.2 | 
33 | COC(=O)Cn1nc(-c2ccc(C(F)(F)F)cc2)c2ccccc21 [Cpd 33] | inactive | inactive |  |  | 
34 | COC(=O)Cn1nc(-c2ccccc2)c2cccc(C(F)(F)F)c21 [Compound 7-CF3] | inactive | inactive |  |  | 
35 | COC(=O)Cn1nc(-c2cccc(OC)c2)c2ccccc21 [Cpd 36] |  |  | 0.7 ± 0.3 | 1.5 ± 0.6 | 
36 | COC(=O)Cn1nc(-c2ccc(C#N)cc2)c2ccccc21 [Cpd 34] | inactive |  |  | 20.5 ± 0.3 | 
